From patent publication US20230271959A1, “HETEROCYCLIC COMPOUND AS BCL-2 INHIBITOR” (Beijing Innocare Pharma Tech Co., Ltd., priority 2020, published 2023) come the findings set out here.

In assay [1] the target is T1, human recombinant Bcl-XL protein (Homo sapiens, UniProt Q07817).
T1 construct: purchased Beijing Yiqiao Shenzhou Biotechnology Co., Ltd. 10455-H0SE
As to the kind of experiment: Fluorescence polarization test for inhibition of BCL-XL binding to FITC-BIM. The settings on record: 10 nM BCL-XL, 10 nM FITC-BIM, read-out: FP BCL-XL IC50. Summed up:
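Human recombinant Bcl-XL (10 nM diluted stock) preincubated with compound 15 min at RT in PBS pH 7.4, 1 mM DTT, then FITC-BIM peptide (10 nM diluted stock) added for 30 min in dark. FP read at ex 480/em 535 nm; no-protein wells = 100% inhibition; IC50 from 8-point 4-fold dilution curve fit.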
Background: Fluorescence polarisation rises when a labelled molecule tumbles more slowly, as on binding a larger partner.

Assay [2] concerns RS4;11 cells (acute lymphoblastic leukemia cells). As to the kind of experiment: RS4;11 cell proliferation, CellTilter-Glo luminescence cell viability assay. It counts as cell-based. The settings on record: Homo sapiens, RS4-11; CTG readout after 48 hours. A digest of the protocol: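 RS4;11 cells plated overnight were exposed for 48 h at 37 °C, 5% CO2 to an 8-point, 4-fold compound dilution series; the vehicle control contained 0.2% DMSO. Viability was read by CellTiter-Glo luminescence. Percent inhibition was referenced to no-cell and DMSO controls, and IC50 came from a four-parameter sigmoidal fit.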

For assay [3], the target named is T2, human recombinant Bcl-2 protein (Homo sapiens, UniProt P10415).
T2 construct: purchased Beijing Yigiao Shenzhou Biotechnology Co., Ltd. 10195-HOSE
As to the kind of experiment: Fluorescence polarization test for inhibition of BCL-2 binding to FITC-BIM. As to conditions: 5 nM BCL-2, 5 nM FITC-BIM, read-out: FP BCL-2 IC50. Summed up:
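FP competition: compound preincubated 15 min with recombinant human Bcl-2 (diluted to 5 nM), then FITC-BIM (diluted to 5 nM) added for 30 min at room temperature in PBS pH 7.4 with 1 mM DTT. Polarization read at 480/535 nm; IC50 from 8-point 4-fold series fitted by four-parameter equation.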

SMILES strings stand for the structures.

T2 sequence (P10415 whole entry): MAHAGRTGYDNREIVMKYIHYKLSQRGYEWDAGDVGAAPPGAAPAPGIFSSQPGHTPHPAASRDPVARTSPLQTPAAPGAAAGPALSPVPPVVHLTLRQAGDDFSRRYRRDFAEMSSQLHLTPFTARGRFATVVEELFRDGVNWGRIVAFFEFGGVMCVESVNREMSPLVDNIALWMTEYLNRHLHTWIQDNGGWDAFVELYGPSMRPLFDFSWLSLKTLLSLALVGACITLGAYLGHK
T1 sequence (Q07817 whole entry): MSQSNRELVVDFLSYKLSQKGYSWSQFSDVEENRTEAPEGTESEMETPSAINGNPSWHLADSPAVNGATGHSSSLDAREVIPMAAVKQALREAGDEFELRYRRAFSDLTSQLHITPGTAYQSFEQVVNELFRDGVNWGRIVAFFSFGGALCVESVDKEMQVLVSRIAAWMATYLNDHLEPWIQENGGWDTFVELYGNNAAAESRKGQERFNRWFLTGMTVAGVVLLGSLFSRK

Consider `C[C@@H]1CN(c2ccc(C(=O)NS(=O)(=O)c3ccc(NC[C@H]4COCCO4)c([N+](=O)[O-])c3)c(Oc3cnc4[nH]ccc4c3)c2)C[C@@H](C)N1CC1=C(c2ccc(Cl)cc2)CC(C)(C)CC1` [Example 59, N-((4-((((S)-1,4-Dioxan-2-yl)menthyl)amino)-3-nitrophenyl)sulfonyl)-2-((1H-pyrrolo[2,3-b]pyridin-5-yl)oxy)-4-((3R,5R)-4-((4′-chloro-5,5-dimethyl-3,4,5,6-tetrahydro-[1,1′-biphenyl]-2-yl)methyl)-3,5-dimethylpiperazin-1-yl)benzamide], for which the IC50 (usually the midpoint of a concentration-inhibition curve) in assay [1] is more than 1000 nM; in assay [2] it was 193 nM; in assay [3] it was 73.2 nM.

As for `C[C@@H]1CN(c2ccc(C(=O)NS(=O)(=O)c3cc(F)c(NC[C@H]4COCCO4)c([N+](=O)[O-])c3)c(Oc3cnc4[nH]ccc4c3)c2)CCN1CC1=C(c2ccc(Cl)cc2)CC(C)(C)C2(CC2)C1` [Example 32, N-((4-((((S)-1,4-dioxan-2-yl)methyl)amino)-3-fluoro-5-nitrophenyl)-sulfonyl)-2-((1H-pyrrolo [2,3-b]pyridin-5-yl)oxy)-4-((R)-4-((6-(4-chlorophenyl)-8,8-dimethylspiro[2.5]oct-5-en-5-yl)methyl)-3-methylpiperazin-1-yl) benzamide], the IC50 in assay [1] is more than 1000 nM; in assay [2], 6.6 nM; in assay [3], 1.8 nM.

Consider `C[C@@H]1CN(c2ccc(C(=O)NS(=O)(=O)c3cc(F)c(NCC4CCOCC4)c([N+](=O)[O-])c3)c(Oc3cnc4[nH]ccc4c3)c2)CCN1CC1=C(c2ccc(Cl)cc2)CC(C)(C)CC1` [Example 1, (R)-2-((1H-pyrrolo[2,3-b]pyridin-5-yl)oxy)-4-(4-((4′-chloro-5,5-dimethyl-3,4,5,6-tetrahydro-[1,1′-biphenyl]-2-yl)methyl)-3-methylpiperazin-1-yl)-N-((3-fluoro-5-nitro-4-(((tetrahydro-2H-pyran-4-yl)methyl)amino)phenyl)sulfonyl)benzamide], for which the IC50 was more than 1000 nM in assay [1], 4.73 nM in assay [2] and 2.05 nM in assay [3].

`C[C@@H]1CN(CC2=C(c3ccc(Cl)cc3)CC(C)(C)CC2)CCN1c1ccc(C(=O)NS(=O)(=O)c2ccc(NC[C@H]3COCCO3)c([N+](=O)[O-])c2)c(Oc2cnc3[nH]ccc3c2)c1` [Example 12]: the figures for the IC50 in assay [1], in assay [2] and in assay [3] were more than 1000 nM, 16 nM and 4.89 nM, respectively.

Consider `C[C@H]1CCC(CN2CCN(c3ccc(C(=O)NS(=O)(=O)c4cc(F)c(NCC5CCOCC5)c([N+](=O)[O-])c4)c(Oc4cnc5[nH]ccc5c4)c3)C[C@H]2C)=C(c2ccc(Cl)cc2)C1` [Example 14], for which the IC50 in assay [1] was more than 1000 nM; in assay [2], 3.8 nM; in assay [3], 2.35 nM.

With `C[C@H]1CN(c2ccc(C(=O)NS(=O)(=O)c3ccc(NC[C@@H]4COCCO4)c([N+](=O)[O-])c3)c(Oc3cnc4[nH]ccc4c3)c2)CCN1CC1=C(c2ccc(Cl)cc2)CCC(C)(C)C1` [Example 53, N-((4-((((R)-1,4-dioxan-2-yl)methyl)amino)-3-nitrophenyl)sulfonyl)-2-((1H-pyrrolo[2,3-b]pyridin-5-yl)oxy)-4-((S)-4-((4′-chloro-4,4-dimethyl-3,4,5,6-tetrahydro-[1,1′-biphenyl]-2-yl)methyl)-3-methylpiperazin-1-yl)benzamide], the IC50 is more than 1000 nM in assay [1], more than 500 nM in assay [2] and more than 100 nM in assay [3].

Turning to `C[C@@H]1CN(c2ccc(C(=O)NS(=O)(=O)c3cc(F)c(NCC4CCOCC4)c([N+](=O)[O-])c3)c(Oc3cnc4[nH]ccc4c3)c2)CCN1CC1=C(c2ccc(Cl)cc2)CC(C)(C)C(C)(C)C1` [Example 40], the 50% inhibitory concentration (IC50) in assay [1] is more than 1000 nM; in assay [2] it was 15 nM; in assay [3], 1.77 nM.

On to `C[C@H]1CN(c2ccc(C(=O)NS(=O)(=O)c3ccc(NC[C@@H]4COCCO4)c([N+](=O)[O-])c3)c(Oc3cnc4[nH]ccc4c3)c2)CCN1CC1=C(c2ccc(Cl)cc2)CC(C)(C)CC1` [Example 51, N-((4-((((R)-1,4-dioxan-2-yl)methyl)amino)-3-nitrophenyl)sulfonyl)-2-((1H-pyrrolo[2,3-b]pyridin-5-yl)oxy)-4-((S)-4-((4′-chloro-5,5-dimethyl-3,4,5,6-tetrahydro-[1,1′-biphenyl]-2-yl)methyl)-3-methylpiperazin-1-yl) benzamide], for which the IC50 in assay [1] is more than 1000 nM; in assay [2], more than 500 nM; in assay [3], more than 100 nM.

As for `C[C@@H]1CCC(CN2CCN(c3ccc(C(=O)NS(=O)(=O)c4cc(F)c(NCC5CCOCC5)c([N+](=O)[O-])c4)c(Oc4cnc5[nH]ccc5c4)c3)[C@H](C)C2)=C(c2ccc(Cl)cc2)C1` [Example 25, 2-((1H-pyrrolo[2,3-b]pyridin-5-yl)oxy)-4-((R)-(((R)-4′-chloro-5-methyl-3,4,5,6-tetrahydro-[1,1′-biphenyl]-2-yl)methyl)-2-methylpiperazin-1-yl)-N-((3-fluoro-5-nitro-4-(((tetrahydro-2H-pyran-4-yl)methyl)amino)phenyl)sulfonyl)benzamide], the IC50 in assay [1] was more than 1000 nM; in assay [2], 32 nM; in assay [3], 2.71 nM.

As for `C[C@@H]1CCC(CN2CCN(c3ccc(C(=O)NS(=O)(=O)c4cc(F)c(NCC5CCOCC5)c([N+](=O)[O-])c4)c(Oc4cnc5[nH]ccc5c4)c3)C[C@H]2C)=C(c2ccc(Cl)cc2)C1` [Example 21, 2-((1H-pyrrolo[2,3-b]pyridin-5-yl)oxy)-4-((R)-4-(((R)-4′-chloro-5-methyl-3,4,5,6-tetrahydro-[1,1′-biphenyl]-2-yl)methyl)-3-methylpiperazin-1-yl)-N-((3-fluoro-5-nitro-4-(((tetrahydro-2H-pyran-4-yl)methyl)amino)phenyl)sulfonyl)benzamide], the IC50 is more than 1000 nM in assay [1], 8.8 nM in assay [2] and 1.97 nM in assay [3].

Consider `C[C@@H]1CCC(CN2CCN(c3ccc(C(=O)NS(=O)(=O)c4cc(F)c(NC[C@H]5COCCO5)c([N+](=O)[O-])c4)c(Oc4cnc5[nH]ccc5c4)c3)[C@H](C)C2)=C(c2ccc(Cl)cc2)C1` [Example 26], for which the IC50 in assay [1] was more than 1000 nM; in assay [2] it was 14 nM; in assay [3] it was 1.63 nM.

As for `C[C@@H]1CN(c2ccc(C(=O)NS(=O)(=O)c3ccc(NC[C@H]4COCCO4)c([N+](=O)[O-])c3)c(Oc3cnc4[nH]ccc4c3)c2)CCN1CC1=C(c2ccc(Cl)cc2)CC(C)(C)CC1` [Example 5, N-((4-((((S)-1,4-dioxan-2-yl)methyl)amino)-3-nitrophenyl)sulfonyl)-2-((1H-pyrrolo[2,3-b]pyridin-5-yl)oxy)-4-((R)-4-((4′-chloro-5,5-dimethyl-3,4,5,6-tetrahydro[1,1′-biphenyl]-2-yl)methyl)-3-methylpiperazin-1-yl) benzamide], the results for the IC50 in assay [1], in assay [2] and in assay [3] were more than 1000 nM, 2.75 nM and 1.54 nM, respectively.

On to `C[C@@H]1CN(c2ccc(C(=O)NS(=O)(=O)c3ccc(NCC4CCOCC4)c([N+](=O)[O-])c3)c(Oc3cnc4[nH]ccc4c3)c2)CCN1CC1=C(c2ccc(Cl)cc2)CC(C)(C)CC1` [Example 2, (R)-2-((1H-pyrrolo[2,3-b]pyridin-5-yl)oxy)-4-(4-((4′-chloro-5,5-dimethyl-3,4,5,6-tetrahydro-[1,1′-biphenyl]-2-yl)methyl)-3-methylpiperazin-1-yl)-N-((3-nitro-4-(((tetrahydro-2H-pyran-4-yl)methyl)amino)phenyl)sulfonyl) benzamide], for which the IC50 in assay [1] is more than 1000 nM; in assay [2], 11.1 nM; in assay [3], 2.56 nM.

In the case of `C[C@H]1CN(c2ccc(C(=O)NS(=O)(=O)c3cc(F)c(NCC4CCOCC4)c([N+](=O)[O-])c3)c(Oc3cnc4[nH]ccc4c3)c2)CCN1CC1=C(c2ccc(Cl)cc2)CC(C)(C)CC1` [Example 7, (S)-2-((1H-pyrrolo[2,3-b]pyridin-5-yl)oxy)-(4-4-((4′-chloro-5,5-dimethyl-3,4,5,6-tetrahydro-[1,1′-biphenyl]-2-yl)methyl)-3-methylpiperazin-1-yl)-N-((3-fluoro-5-nitro-4-(((tetrahydro-2H-pyran-4-yl)methyl)amino)phenyl)sulfonyl) benzamide], the IC50 in assay [1] was more than 1000 nM; in assay [2], more than 500 nM; in assay [3], more than 100 nM.

As for `C[C@H]1CN(c2ccc(C(=O)NS(=O)(=O)c3ccc(NC[C@H]4COCCO4)c([N+](=O)[O-])c3)c(Oc3cnc4[nH]ccc4c3)c2)CCN1CC1=C(c2ccc(Cl)cc2)CCC(C)(C)C1` [Example 49, N-((4-((((S)-1,4-dioxan-2-yl)methyl)amino)-3-nitrophenyl)sulfonyl)-2-((1H-pyrrolo[2,3-b]pyridin-5-yl)oxy)-4-((S)-4-((4′-chloro-4,4-dimethyl-3,4,5,6-tetrahydro-[1,1′-biphenyl]-2-yl)methyl)-3-methylpiperazin-1-yl) benzamide], the IC50 in assay [1] is more than 1000 nM; in assay [2], more than 500 nM; in assay [3], more than 100 nM.
